Active and inactive are the calls of the source.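 Rule for the calls: active = compounds giving half or more protection of infected cells from virus-caused growth loss, again on retest; inactive = the rest.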 Where a SMILES comes first, the peptide text is derived from it. [ ]: non-standard residue; d: D form. The star is where a group is joined. Phe(4-NO2) = N[CH](Cc1ccc([N+](=O)[O-])cc1)C(=O)O; Cbz = O=C(OCc1ccccc1)*; Boc = CC(C)(C)OC(=O)*; Bn = c1ccc(C*)cc1
Tested on: CEM cells HIV-1 protection, formazan growth assay
Experiment: NCI AIDS Antiviral Assay
Settings: for IC50: measured here: growth of uninfected CEM cells
Method: The ability of compounds to protect human CEM cells from HIV-1 infection is measured as a screen for new compounds capable of inhibiting the HIV virus. Five concentrations of drug were tested on uninfected and infected cells and cell growth was measured using a soluble formazan assay. […] Compounds that provided at least 50% protection were retested. Compounds that provided at least 50% protection on retest were listed as moderately active. Compounds that reproducibly provided 100% protection were listed as confirmed active. […] Note that the inability to provide protection could be due to toxicity.

O=c1/c(=C/c2ccc(Cl)cc2Cl)sc2nc3ccccc3n12
outcome: inactive

Cc1ccc(C)c(N2C(=O)C(=O)C(c3nc4ccccc4s3)/C(=N/NC(=O)NN)C2=O)c1 (centres undefined)
outcome: inactive

c1ccc2c(c1)nnn2C1CCCCO1 (centres undefined)
EC50: > 200 µM
IC50: > 200 µM

N#CSCc1cccc(Nc2cc(=O)[nH]c(=O)[nH]2)c1
EC50: > 200 µM
IC50: 25.7 µM

CN1CCC2(CC1)C(=O)N(N1CCCCCC1)C(=O)N2c1ccccc1
EC50: > 200 µM
IC50: > 200 µM

OC1(c2ccccc2)OC(C#Cc2ccccc2)(c2ccccc2)c2ccccc21 (centres undefined)
outcome: inactive

CC(=O)OCC(CC[CH2][Sn]([Cl])([Cl])[c]1ccccc1)OC(C)=O (centres undefined)
outcome: inactive

C=C(C)P(=O)(OC(C)CCl)OC(C)CCl (centres undefined)
EC50: > 200 µM
IC50: > 200 µM

CC(C)OC1NC(=O)Oc2ccccc21 (centres undefined)
EC50: > 200 µM
IC50: 132 µM

CC(CN(C)C)C(=O)c1ccccc1 (centres undefined)
EC50: > 912 µM
IC50: 55 µM

COc1cccc2c1OC1(C=C2)Oc2ccccc2C(=O)N1C (centres undefined)
EC50: > 200 µM
IC50: 30.9 µM

COc1ccc(CNc2nc3c(NC(C)=O)cc(C(F)(F)F)cc3nc2-c2ccccc2)cc1OC
EC50: > 10.5 µM
IC50: > 10.5 µM

c1ccc2c(c1)Nc1ccccc1[P+]21c2ccccc2Nc2ccccc21
EC50: > 2 µM
IC50: 0.288 µM

CCOC(=O)/C(=C\c1cn(C(C)=O)c2ccccc12)P(C)(=O)OCC (centres undefined)
EC50: > 200 µM
IC50: 55 µM

CN1C(=O)C(O)CC1c1cccc(C(F)(F)F)c1 (centres undefined)
outcome: inactive

C/C=C1\C[C@@H]2C(OC)Nc3cc(O)c(OC)cc3C(=O)N2C1 (some centres undefined)
EC50: > 813 µM
IC50: 0.263 µM

C1COCCSC2=C(SCCO1)SC(=C1SC3=C(SCCOCCOCCS3)S1)S2
EC50: > 17.8 µM
IC50: > 17.8 µM

CC1(C)N=C(C(N)=O)c2ncn(Cc3ccccc3)c2N1
EC50: > 200 µM
IC50: > 200 µM

O=C(Cc1nc2c3c(ccc2[nH]c1=O)C(=O)c1ccccc1C3=O)C(=O)Nc1ccccc1[N+](=O)[O-]
EC50: > 38.9 µM
IC50: 10 µM

Cc1ccc2c(c1)[nH]c(=S)n2C=C1C(=O)NC(=O)NC1=O
EC50: > 100 µM
IC50: > 100 µM

Oc1cc(Br)cc2cc(Br)cnc12
outcome: inactive

CC1C/C(=C\c2ccc(OC(=O)C(C)(C)C)cc2)C(=O)/C(=C/c2ccc(OC(=O)C(C)(C)C)cc2)C1 (centres undefined)
EC50: > 50.1 µM
IC50: 22.4 µM

O=C1/C(=C2\Sc3c(ccc(Cl)c3Cl)C2=O)Sc2c1ccc(Cl)c2Cl
EC50: > 200 µM
IC50: > 200 µM

NC(CCCCCP(=O)(O)O)C(=O)O (centres undefined)
EC50: > 200 µM
IC50: > 200 µM

C#CCNC(Cc1cnc[nH]1)C(=O)O (centres undefined)
EC50: > 200 µM
IC50: > 200 µM

O=C(O)CCCc1ccc2c(c1)CC1(C2)Cc2ccc(CCCC(=O)O)cc2C1
EC50: > 200 µM
IC50: 141 µM

Cc1cc(C)c(S(=O)(=O)N(CCCCCN)OCCCN)c(C)c1
EC50: > 200 µM
IC50: 30.2 µM

C#CC1(O)CCC2C3CCC4=C(CCC(=O)C4)C3CCC21C (centres undefined)
EC50: 30.9 µM
IC50: 166 µM

O=[N+]([O-])c1ccc(C2N3CCCCC3[C@@H]3c4[nH]c5ccccc5c4CCN23)cc1 (some centres undefined)
EC50: > 34.7 µM
IC50: > 34.7 µM

C[C@@]1(O)C2CC3CC1(c1ccccc1)CC(/C3=N/O)/C2=N\O (some centres undefined)
EC50: > 200 µM
IC50: > 200 µM

CCCCCCCCCCCCCCCCCCOCC(CO[P+](=O)O)OCCCCCCCCCCCCCCCCCC (centres undefined)
EC50: > 50.1 µM
IC50: > 50.1 µM

N.N.N.N.O=N[O-].O=N[O-].[Cl-].[Co+3]
outcome: inactive

OC1(c2ccccc2)c2ccccc2CCC1Br (centres undefined)
EC50: > 200 µM
IC50: 56.2 µM

COc1ccc(-c2cc(-c3ccccc3)n(C3OCC(OC(C)=O)C(OC(C)=O)C3OC(C)=O)c(=S)c2C#N)cc1 (centres undefined)
EC50: > 200 µM
IC50: 43.7 µM

CN(C=O)/C=C/c1cc(O)ccc1O
outcome: inactive

O=C(O)CNCCCCCCNCC(=O)O
EC50: > 631 µM
IC50: 617 µM

COC1=NC(NC2OCC(O)C(O)C2O)=C(NC(C)=O)CN1C (centres undefined)
EC50: > 200 µM
IC50: > 200 µM

CCOC(=O)/C(=C\c1ccc(N(C)C)cc1)P(=O)(OCC)OCC
EC50: > 513 µM
IC50: 55 µM

CC1=CCC2(C#N)CCC1C2O (centres undefined)
EC50: > 1510 µM
IC50: > 1510 µM

Clc1ccc(/C(=C\c2ccccc2)Cn2ccnc2)cc1
EC50: > 200 µM
IC50: 16.2 µM

O=C(Nc1ccc(Cl)cc1)Sc1nnc2c(n1)[nH]c1ccccc12
EC50: 30.2 µM
IC50: > 200 µM

CC1c2c(cc(=O)n(Cc3ccccc3)c2O)C(=O)N1C (centres undefined)
EC50: > 126 µM
IC50: 112 µM

Cc1nc2ccc(N=NN(C)C)cc2[nH]1
EC50: > 200 µM
IC50: > 200 µM

CC(=O)O[C@H]1CCC2[C@@H]3CCC4=C(O)C(=O)C(C#N)C[C@]4(C)C3CC[C@@]21C (some centres undefined)
outcome: inactive

Cn1c2c(c(=O)[nH]c1=O)OCN(Cc1ccccc1)C2
EC50: > 251 µM
IC50: 29.5 µM

O=[N+]([O-])c1cc(Cc2cc(Cl)c(O)c([N+](=O)[O-])c2)cc(Cl)c1O
EC50: > 200 µM
IC50: 35.5 µM

O=C1NC2(CCCCC2)OC12CCCCC2
EC50: > 6.46 µM
IC50: > 6.46 µM

O=C(Nc1cccc(NC(=O)c2nn[nH]n2)n1)c1nn[nH]n1
EC50: > 200 µM
IC50: > 200 µM

COc1ccc(N2C(=O)C(=O)C3(CCCCC3)C2=O)c2ccccc12
EC50: > 200 µM
IC50: > 200 µM

CC(=C/c1ccccc1)/C=C1/NC(=S)N(/C=C2\C(=O)Oc3ccccc3C2=O)C1=O
EC50: > 200 µM
IC50: > 200 µM

O=C1CCCN1CO
EC50: > 200 µM
IC50: > 200 µM

CCOC(=O)/N=c1/nc(N(C)C)ss1
outcome: inactive

c1cc(C2O[C@H]3CCCN3[C@@H]2c2ccncc2)ccn1 (some centres undefined)
EC50: > 933 µM
IC50: 331 µM

CCN(CC)CCCC(C)Nc1c2ccc(Cl)cc2nc2c(Cl)cc(Cl)cc12 (centres undefined)
EC50: > 200 µM
IC50: 7.94 µM

O=C(NNC(=O)c1cc(/C=C/c2cccc([N+](=O)[O-])c2)[nH]c(=S)n1)Nc1ccc(Cl)cc1
EC50: > 11 µM
IC50: > 11 µM

COc1ccccc1NC(=O)CC(=O)NNCC(=O)Nc1nnc(-c2ccccc2)o1
EC50: > 85.1 µM
IC50: > 85.1 µM

Nc1nnc(N)n1NC(=O)C(=O)Nc1ccc([N+](=O)[O-])cc1
EC50: > 151 µM
IC50: > 151 µM

CC(=O)c1ccc(NC(=O)CSc2nc(C)nc3c2sc(=S)n3-c2ccccc2)cc1
EC50: > 200 µM
IC50: > 200 µM

Cc1cccc2c1Oc1cc(Cl)ccc1C2NC(=O)CCN1CCOCC1 (centres undefined)
EC50: > 200 µM
IC50: > 200 µM

COc1ccc(N2C(=O)[C@@H]3[C@H](C2=O)c2[nH]c4ccccc4c2C2CCC(C(C)(C)C)C[C@@H]23)cc1 (some centres undefined)
EC50: > 28.2 µM
IC50: > 28.2 µM

O=C(c1ccccc1)N1C(=S)N(c2ccccn2)C(=Nc2ccccc2)C1=Nc1ccccc1
EC50: > 200 µM
IC50: 8.71 µM

CC(=O)N(C(C)=O)c1ncc(-n2nc(-c3ccccc3)cc2-c2ccccc2)c(-c2ccccc2)n1
EC50: > 200 µM
IC50: 115 µM

CCCCCCN(CCCCCC)/N=C/c1c2c(O)c3c(O)c(C)c4c(c3c1O)C(=O)C(C)(O/C=C/C(OC)C(C)C(OC(C)=O)C(C)C(O)C(C)C(O)C(C)/C=C/C=C(C)C(=O)N2)O4 (centres undefined)
outcome: inactive

COc1cc(CC2c3cc(OC)c(OC)cc3CCN2C)c(Oc2cc3c(cc2OC)-c2c(O)c(OC)cc4c2C(C3)N(C)CC4)cc1OC (centres undefined)
outcome: inactive

CN1CCC2(CC1)C(C#N)C(=O)NC(=O)C2C#N (centres undefined)
EC50: > 339 µM
IC50: > 339 µM

CCOC(=O)C[C@]1(O)[C@@H](CO[Si](C)(C)C(C)(C)C)O[C@@H](n2ccc(=O)[nH]c2=O)[C@@H]1O[Si](C)(C)C(C)(C)C
EC50: > 200 µM
IC50: 10.7 µM

CCCCCCCCCCCC(=O)OCC1OC(n2cc(F)c(=O)[nH]c2=O)C(N)C(O)C1O (centres undefined)
EC50: > 55 µM
IC50: > 55 µM

COc1ccc(C2CC(c3ccccc3)=Nc3ccccc3S2)cc1 (centres undefined)
EC50: > 51.3 µM
IC50: 27.5 µM

Nc1nc(N)c(-c2ccc(Cl)cc2)c(CCC(=O)Nc2cccc(C(F)(F)F)c2)n1
EC50: > 12 µM
IC50: > 12 µM

Cc1ccc(C(=O)C2=CN=C3C(=O)N(c4ccccc4)N(C)C3(C)C2=N)cc1 (centres undefined)
EC50: > 200 µM
IC50: > 200 µM

Cc1ccccc1NC(=S)Nc1ccccn1
EC50: > 200 µM
IC50: 95.5 µM

COC(=O)C(CC(C)C)NC(=O)CNC(=O)C(Cc1ccc(OCc2ccccc2)cc1)NC(=O)C(COCc1ccccc1)NC(=O)OC(C)(C)C (centres undefined) (Boc-S(Bn)Y(Bn)GL-OMe; configuration not given here)
EC50: > 200 µM
IC50: 115 µM

CCOC(=O)Cc1csc(NC(NC(=O)OCC)(C(=O)OCC)C(F)(F)F)n1 (centres undefined)
EC50: > 200 µM
IC50: > 200 µM

O=S(=O)(O)CCO
EC50: > 200 µM
IC50: > 200 µM

CCCCCCC(C)S(=O)(=O)O (centres undefined)
EC50: > 200 µM
IC50: > 200 µM

CCOC(=O)CCC(NC(=O)OCc1ccccc1)C(=O)NC(CCC(=O)OCC)C(=O)NC(Cc1ccc([N+](=O)[O-])cc1)C(=O)NC(CCC(=O)OCC)C(=O)NC(CCC(=O)OCC)C(=O)OCC (centres undefined) (Cbz-E(OEt)E(OEt)[Phe(4-NO2)]E(OEt)E(OEt)-OEt; configuration not given here)
EC50: > 200 µM
IC50: > 200 µM

COc1ccc2c(c1)-c1c(c3cc(OC)ccc3n1CCN(C)C)CC2
outcome: inactive

C=CC(C)(C)n1cc(C2=C(O)C(=O)C(c3c(CC=C(C)C)[nH]c4ccccc34)=C(O)C2=O)c2ccccc21
EC50: > 200 µM
IC50: 2.57 µM

NCCS/C=C\C(=O)OCc1ccc(Br)cc1
EC50: > 708 µM
IC50: 64.6 µM

O=c1c(S(=O)(=O)Oc2ccccc2)coc2cc(F)ccc12
EC50: > 200 µM
IC50: 135 µM

COC(=O)c1c(C)c(=O)n(C)c(=O)n1C
outcome: inactive

O=C(O)Cc1ccc(-c2cn3c(n2)sc2ccccc23)cc1
EC50: > 200 µM
IC50: > 200 µM

O=S(=O)(O)SCCCNCCCCCCNCCCSS(=O)(=O)O
EC50: > 200 µM
IC50: 129 µM

COC(=O)C1(C#N)C(C)(C)N=C(c2ccccc2)C12CCCCC2 (centres undefined)
EC50: > 200 µM
IC50: 93.3 µM

— PubChem BioAssay AID179 (DTP/NCI, 2004)
